Reference: patent US20130102009A1, “SIRTUIN ACTIVATORS AND ACTIVATION ASSAYS” (priority 2010, published 2013)
“Also recorded” adds a separate entry of the source. Counter-ions that a name gives are not always drawn.

How the values were obtained:
[1] = target: T1, SIRT1 (Homo sapiens, UniProt Q96EB6); assay: Mass spectrometry based SIRT1 activation assay (TAMRA/5TMR-labeled 20mer peptide); format: biochemical; conditions: for Emax: 25 min, percent maximum fold activation of SIRT1, read-out: % FOLD ACT.; for EC1.5 uM: concentration that results in 150% activation of SIRT1
T1 sequence (Q96EB6 1-747): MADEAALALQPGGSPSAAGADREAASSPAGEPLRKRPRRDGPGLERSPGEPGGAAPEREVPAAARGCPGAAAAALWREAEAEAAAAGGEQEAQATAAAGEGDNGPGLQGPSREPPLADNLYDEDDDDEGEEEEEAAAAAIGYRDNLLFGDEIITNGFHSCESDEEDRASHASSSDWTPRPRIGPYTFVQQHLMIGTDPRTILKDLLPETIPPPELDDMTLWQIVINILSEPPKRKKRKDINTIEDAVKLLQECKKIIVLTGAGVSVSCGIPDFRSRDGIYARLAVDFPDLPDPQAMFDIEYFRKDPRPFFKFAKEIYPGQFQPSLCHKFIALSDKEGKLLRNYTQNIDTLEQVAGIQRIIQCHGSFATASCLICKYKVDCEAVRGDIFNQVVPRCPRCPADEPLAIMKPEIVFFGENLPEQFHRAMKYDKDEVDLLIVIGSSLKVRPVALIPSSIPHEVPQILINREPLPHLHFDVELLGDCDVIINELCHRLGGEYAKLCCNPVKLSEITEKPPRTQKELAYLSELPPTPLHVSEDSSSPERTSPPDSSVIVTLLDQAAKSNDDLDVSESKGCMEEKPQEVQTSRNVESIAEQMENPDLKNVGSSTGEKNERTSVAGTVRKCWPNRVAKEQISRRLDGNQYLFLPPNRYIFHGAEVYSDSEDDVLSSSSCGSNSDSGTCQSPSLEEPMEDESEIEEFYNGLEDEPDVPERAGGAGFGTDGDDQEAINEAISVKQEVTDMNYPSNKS
Description: A mass spectrometry based assay was used to identify modulators of SIRTI activity. The mass spectrometry based assay utilizes a peptide having 20 amino acid residues as follows: Ac-EE-K(biotin)-GQSTSSHSK(Ac)NleSTEG-K(5TMR)-EE-NH2 (SEQ ID NO: 1) wherein K(Ac) is an acetylated lysine residue and Nle is a norleucine. The peptide is labeled with the fluorophore 5TMR (excitation 540 nrnIemission 580 nm) at the C-terminus. The sequence of the peptide substrate is based on p53 with several modifications. In addition, the methionine residue naturally present in the sequence was replaced with the norleucine because the methionine may be susceptible to oxidation during synthesis and purification.
The mass spectrometry assay is conducted as follows: 0.5 J-1M peptide substrate and 120 μM βNAD^+ is incubated with 10 nM SIRT1 for 25 minutes at 25° C. in a reaction buffer (50 mM Tris-acetate pH 8, 137 mM NaCl, 2.7 mM KCl, 1 mM MgClz, 5 mM DTT, 0.05% BSA). Test compounds may be added to the reaction as described above. The SirTI gene is cloned into a T7-promoter containing vector and transformed into BL21 (DE3). After the 25 minute incubation with SIRT1, 10 μL of 10% formic acid is added to stop the reaction. Reactions are sealed and frozen for later mass spec analysis. Determination of the mass of the substrate peptide allows for precise determination of the degree of acetylation (i.e. starting material) as compared to deacetylated peptide (product).
A control for inhibition of sirtuin activity is conducted by adding 1 μL of 500 mM nicotinamide as a negative control at the start of the reaction (e.g., permits determination of maximum sirtuin inhibition). A control for activation of sirtuin activity is conducted using 10 nM of sirtuin protein, with 1 μL of DMSO in place of compound, to determine the amount of deacetylation of the substrate at a given timepoint within the linear range of the assay. This timepoint is the same as that used for test compounds and, within the linear range, the endpoint represents a change in velocity.
For the above assay, SIRTI protein was expressed and purified as follows. The SirT1 gene was cloned into a T7-promoter containing vector and transformed into BL21(DE3). The protein was expressed by induction with 1 mM IPTG as an N-terminal His-tag fusion protein at 18° C. overnight and harvested at 30,000×g. Cells were lysed with lysozyme in lysis buffer (50 mM Tris-HCl, 2 mM Tris[2-carboxyethyl]phosphine (TCEP), 10 μM ZnCl2, 200 mM NaCl) and further treated with sonication for 10 min for complete lysis. The protein was purified over a Ni-NTA column (Amersham) and fractions containing pure protein were pooled, concentrated and run over a sizing column (Sephadex S200 26/60 global). The peak containing soluble protein was collected and run on an Ion-exchange column (MonoQ). Gradient elution (200 mM-500 mM NaCl) yielded pure 20 protein. This protein was concentrated and dialyzed against dialysis buffer (20 mM TrisHCl, 2 mM TCEP) overnight. The protein was aliquoted and frozen at −80° C. until further use.
Sirtuin modulating compounds that activated SIRT1 were identified using the assay described above and are shown below in Table 4. The EC1.5 values represent the concentration of test compounds that result in 150% activation of SIRT1. The EC1.5 values for the activating compounds are represented by A (EC1.5≦1 μM), B (EC1.5>1 μM). The percent maximum fold activation is represented by A (Fold activation ≧200%) or B (Fold Activation <200%).

[2] = target: TAMRA-peptide; assay: ITC binding of STACs to TAMRA-peptide; conditions: 26° C.; for Kd: pH 7.3, read-out: Kd for the binding of activator to TAMRA-peptide
Protocol: ITC experiments were performed using either a VP-ITC system or iTC200 system (MicroCal) at 26° C. in a buffer composed of 137 mM NaCl, 2.7 mM KCl, 1 mM MgCl2, 2 mM TCEP, 5% (v/v) glycerol and 50 mM HEPES-NaOH, pH 7.3. SIRT1(183-664) was purified and dialyzed against the buffer, centrifuged, and degassed before the experiment. The peptide and compounds were dissolved in the final dialysis buffer and their pH values were adjusted to match that of the protein solution. […] To characterize this interaction using the iTC200 system, 1 mM TAMRA-peptide was injected in 20 aliquots of 2 μL, (except the first injection, which was 0.5 μL) into a 0.202 mL sample cell containing 100 μM STAC. For STACs with poor solubility, the concentrations were adjusted accordingly. […] In all cases, data was corrected for the heat of dilution and fitted using a nonlinear least-squares routine using a single-site binding model with Origin for ITC v7.0383 (Microcal) with the stoichiometry (n), the enthalpy of the reaction (ΔH) and the association constant (Ka) calculated.

| Emax [1] [%] | EC1.5 uM [1] | Structure (SMILES) | Kd for the binding of activator to TAMRA-peptide ([2]; pH 7.3) | Kd [2] [µM] |
| --- | --- | --- | --- | --- |
| < 200 | B (EC1.5>1 μM) | CN(C)Cc1cnc2sc(-c3ccccc3NC(=O)c3cnc4ccccc4n3)nc2c1 [Compound 2, N-(2-(6-((dimethylamino)methyl)thiazolo[5,4-b]pyridin-2-yl)phenyl)quinoxaline-2-carboxamide] | – | – |
| ≥ 200 | A (EC1.5≦1 μM) | Cc1nc(-c2cccnc2)sc1C(=O)Nc1ccccc1-c1cn2c(CN3CC4CC3CN4)csc2n1 (stereo not drawn) [Compound 4, N-(2-(3-(2,5-diazabicyclo[2.2.1]heptan-2-ylmethyl)imidazo[2,1-b]thiazol-6-yl)phenyl)-4-methyl-2-(pyridin-3-yl)thiazole-5-carboxamide] | no detectable binding; also recorded: lack of binding | > 100 |
| ≥ 200 | A (EC1.5≦1 μM) | CN(C)CCCNc1cc(-c2nc3c(NC(=O)c4ccc(CN5CCNCC5)cc4)cccc3[nH]2)ccn1 [Compound 14, N-(2-(2-(3-(dimethylamino)propylamino)pyridin-4-yl)-1H-benzo[d]imidazol-4-yl)-4-(piperazin-1-ylmethyl)benzamide trihydrochloride] | – | – |
| – | – | COc1cc(C(=O)Nc2ccccc2-c2cn3c(CN4CCNCC4)csc3n2)cc(OC)c1OC [SRT1460] | – | 140 |

| Structure (SMILES) | Emax [1] [%] | EC1.5 uM [1] | Kd for the binding of activator to TAMRA-peptide ([2]; pH 7.3) | Kd [2] [µM] |
| --- | --- | --- | --- | --- |
| CCCCc1nc(NC2CCNCC2)cc(C(=O)Nc2ccccc2-c2nc3cc(COC4CCNCC4)cnc3s2)n1 [Compound 10, 2-butyl-6-(piperidin-4-ylamino)-N-(2-(6-((piperidin-4-yloxy)methyl)thiazolo[5,4-b]pyridin-2-yl)phenyl)pyrimidine-4-carboxamide] | ≥ 200 | A (EC1.5≦1 μM) | – | 2.5 |
